# Experimental data as given in article PMC11899342, “Novel Triazeneindole Antibiotics: Synthesis and Hit-to-Lead Optimization” (International Journal of Molecular Sciences, 2025).
# Tested on: MRSA clinical isolates
# Assay: Antibiotic susceptibility profile of MRSA clinical isolates (EUCAST breakpoints)
# Type: cell-based, Staphylococcus aureus
# Source text: Clinical MRSA isolates with multidrug resistance were obtained from the collection of the Research Institute of Antimicrobial Chemotherapy, Smolensk State Medical Academy.
compound,measurement,setting,value
"CO/N=C(\C(=O)N[C@@H]1C(=O)N2C(C(=O)O)=C(COC(C)=O)CS[C@H]12)c1csc(N)n1 [CEF, cefotaxime]",Drug sensibility profile,MRSA strain 1,S
same,Drug sensibility profile,MRSA strain 2,S
same,Drug sensibility profile,MRSA strain 3,S
same,Drug sensibility profile,MRSA strain 4,S
same,Drug sensibility profile,MRSA strain 5,S
same,Drug sensibility profile,MRSA strain 6,R
same,Drug sensibility profile,MRSA strain 7,S
same,Drug sensibility profile,MRSA strain 8,R
same,Drug sensibility profile,MRSA strain 9,S
same,Drug sensibility profile,MRSA strain 10,S
same,Drug sensibility profile,MRSA strain 12,S
same,Drug sensibility profile,MRSA strain 13,R
same,Drug sensibility profile,MRSA strain 14,S
same,Drug sensibility profile,MRSA strain 15,S
same,Drug sensibility profile,MRSA strain 16,S
same,Drug sensibility profile,MRSA strain 17,S
same,Drug sensibility profile,MRSA strain 18,S
same,Drug sensibility profile,MRSA strain 21,R
same,Drug sensibility profile,MRSA strain 23,S
same,Drug sensibility profile,MRSA strain 24,S
same,Drug sensibility profile,MRSA strain 25,S
same,Drug sensibility profile,MRSA strain 26,S S S S S S S
same,Drug sensibility profile,MRSA strain 27,R
same,Drug sensibility profile,MRSA strain 28,S
same,Drug sensibility profile,MRSA strain 29,S
same,Drug sensibility profile,MRSA strain 30,S
same,Drug sensibility profile,MRSA strain 31,R
same,Drug sensibility profile,MRSA strain 34,R
same,Drug sensibility profile,MRSA strain 35,R
same,Drug sensibility profile,MRSA strain 36,S S S S S S S
same,Drug sensibility profile,MRSA strain 40,S
same,Drug sensibility profile,MRSA strain 41,R
same,Drug sensibility profile,MRSA strain 42,S
same,Drug sensibility profile,MRSA strain 43,S
same,Drug sensibility profile,MRSA strain 44,R
same,Drug sensibility profile,MRSA strain 45,S
same,Drug sensibility profile,MRSA strain 46,S
same,Drug sensibility profile,MRSA strain 48,R
same,Drug sensibility profile,MRSA strain 49,S
same,Drug sensibility profile,MRSA strain 50,R
same,Drug sensibility profile,MRSA strain 51,S
"CCC[C@@H]1C[C@@H](C(=O)N[C@@H]([C@H]2O[C@H](SC)[C@H](O)[C@@H](O)[C@H]2O)[C@H](C)Cl)N(C)C1 [CLIND, clindamycin]",Drug sensibility profile,MRSA strain 1,S
same,Drug sensibility profile,MRSA strain 2,R
same,Drug sensibility profile,MRSA strain 3,S
same,Drug sensibility profile,MRSA strain 4,S
same,Drug sensibility profile,MRSA strain 5,R
same,Drug sensibility profile,MRSA strain 6,R
same,Drug sensibility profile,MRSA strain 7,R
same,Drug sensibility profile,MRSA strain 8,S
same,Drug sensibility profile,MRSA strain 9,S
same,Drug sensibility profile,MRSA strain 10,S
same,Drug sensibility profile,MRSA strain 12,R
same,Drug sensibility profile,MRSA strain 13,S
same,Drug sensibility profile,MRSA strain 14,R
same,Drug sensibility profile,MRSA strain 15,S
same,Drug sensibility profile,MRSA strain 16,R
same,Drug sensibility profile,MRSA strain 17,S
same,Drug sensibility profile,MRSA strain 18,S
same,Drug sensibility profile,MRSA strain 21,R
same,Drug sensibility profile,MRSA strain 23,R
same,Drug sensibility profile,MRSA strain 24,S
same,Drug sensibility profile,MRSA strain 25,S
same,Drug sensibility profile,MRSA strain 26,S S S S S S S
same,Drug sensibility profile,MRSA strain 27,S
same,Drug sensibility profile,MRSA strain 28,S
same,Drug sensibility profile,MRSA strain 29,S
same,Drug sensibility profile,MRSA strain 30,S
same,Drug sensibility profile,MRSA strain 31,R
same,Drug sensibility profile,MRSA strain 34,S
same,Drug sensibility profile,MRSA strain 35,S
same,Drug sensibility profile,MRSA strain 36,S S S S S S S
same,Drug sensibility profile,MRSA strain 40,R
same,Drug sensibility profile,MRSA strain 41,S
same,Drug sensibility profile,MRSA strain 42,S
same,Drug sensibility profile,MRSA strain 43,S
same,Drug sensibility profile,MRSA strain 44,S
same,Drug sensibility profile,MRSA strain 45,R
same,Drug sensibility profile,MRSA strain 46,S
same,Drug sensibility profile,MRSA strain 48,R
same,Drug sensibility profile,MRSA strain 49,S
same,Drug sensibility profile,MRSA strain 50,R
same,Drug sensibility profile,MRSA strain 51,S
CCCCCCCCCC(=O)N[C@@H](Cc1c[nH]c2ccccc12)C(=O)N[C@H](CC(N)=O)C(=O)N[C@@H](CC(=O)O)C(=O)N[C@@H]1C(=O)NCC(=O)N[C@@H](CCCN)C(=O)N[C@@H](CC(=O)O)C(=O)N[C@H](C)C(=O)N[C@@H](CC(=O)O)C(=O)NCC(=O)N[C@H](CO)C(=O)N[C@@H]([C@H](C)CC(=O)O)C(=O)N[C@@H](CC(=O)c2ccccc2N)C(=O)O[C@@H]1C [Daptomycine],Drug sensibility profile,MRSA strain 1,S
same,Drug sensibility profile,MRSA strain 2,S
same,Drug sensibility profile,MRSA strain 3,S
same,Drug sensibility profile,MRSA strain 4,S
same,Drug sensibility profile,MRSA strain 5,S
same,Drug sensibility profile,MRSA strain 6,S
same,Drug sensibility profile,MRSA strain 7,S
same,Drug sensibility profile,MRSA strain 8,S
same,Drug sensibility profile,MRSA strain 9,S
same,Drug sensibility profile,MRSA strain 10,S
same,Drug sensibility profile,MRSA strain 12,S
same,Drug sensibility profile,MRSA strain 13,S
same,Drug sensibility profile,MRSA strain 14,S
same,Drug sensibility profile,MRSA strain 15,S
same,Drug sensibility profile,MRSA strain 16,S
same,Drug sensibility profile,MRSA strain 17,S
same,Drug sensibility profile,MRSA strain 18,S
same,Drug sensibility profile,MRSA strain 21,S
same,Drug sensibility profile,MRSA strain 23,S
same,Drug sensibility profile,MRSA strain 24,S
same,Drug sensibility profile,MRSA strain 30,S
same,Drug sensibility profile,MRSA strain 31,S
same,Drug sensibility profile,MRSA strain 34,S
same,Drug sensibility profile,MRSA strain 35,S
same,Drug sensibility profile,MRSA strain 40,S
same,Drug sensibility profile,MRSA strain 43,S
same,Drug sensibility profile,MRSA strain 46,S
same,Drug sensibility profile,MRSA strain 48,S
same,Drug sensibility profile,MRSA strain 49,S
same,Drug sensibility profile,MRSA strain 50,S
"CC[C@H]1OC(=O)[C@H](C)[C@@H](O[C@H]2C[C@@](C)(OC)[C@@H](O)[C@H](C)O2)[C@H](C)[C@@H](O[C@@H]2O[C@H](C)C[C@H](N(C)C)[C@H]2O)[C@](C)(O)C[C@@H](C)C(=O)[C@H](C)[C@@H](O)[C@]1(C)O [ERI, erythromycin]",Drug sensibility profile,MRSA strain 1,S
same,Drug sensibility profile,MRSA strain 2,R
same,Drug sensibility profile,MRSA strain 3,S
same,Drug sensibility profile,MRSA strain 4,S
same,Drug sensibility profile,MRSA strain 5,R
same,Drug sensibility profile,MRSA strain 6,R
same,Drug sensibility profile,MRSA strain 7,R
same,Drug sensibility profile,MRSA strain 8,R
same,Drug sensibility profile,MRSA strain 9,R
same,Drug sensibility profile,MRSA strain 10,S
same,Drug sensibility profile,MRSA strain 12,R
same,Drug sensibility profile,MRSA strain 13,S
same,Drug sensibility profile,MRSA strain 14,R
same,Drug sensibility profile,MRSA strain 15,S
same,Drug sensibility profile,MRSA strain 16,R
same,Drug sensibility profile,MRSA strain 17,S
same,Drug sensibility profile,MRSA strain 18,S
same,Drug sensibility profile,MRSA strain 21,R
same,Drug sensibility profile,MRSA strain 23,R
same,Drug sensibility profile,MRSA strain 24,S
same,Drug sensibility profile,MRSA strain 25,S
same,Drug sensibility profile,MRSA strain 26,S S S S S S S
same,Drug sensibility profile,MRSA strain 27,S
same,Drug sensibility profile,MRSA strain 28,R
same,Drug sensibility profile,MRSA strain 29,S
same,Drug sensibility profile,MRSA strain 30,I
same,Drug sensibility profile,MRSA strain 31,R
same,Drug sensibility profile,MRSA strain 34,I
same,Drug sensibility profile,MRSA strain 35,I
same,Drug sensibility profile,MRSA strain 36,S S S S S S S
same,Drug sensibility profile,MRSA strain 40,R
same,Drug sensibility profile,MRSA strain 41,S
same,Drug sensibility profile,MRSA strain 42,S
same,Drug sensibility profile,MRSA strain 43,I
same,Drug sensibility profile,MRSA strain 44,I
same,Drug sensibility profile,MRSA strain 45,R
same,Drug sensibility profile,MRSA strain 46,S
same,Drug sensibility profile,MRSA strain 48,R
same,Drug sensibility profile,MRSA strain 49,I
same,Drug sensibility profile,MRSA strain 50,R
same,Drug sensibility profile,MRSA strain 51,S
CC(=O)O[C@H]1C[C@@]2(C)[C@@H](C[C@@H](O)[C@H]3[C@@]4(C)CC[C@@H](O)[C@@H](C)[C@@H]4CC[C@@]32C)/C1=C(\CCC=C(C)C)C(=O)O [Fusidic acid],Drug sensibility profile,MRSA strain 1,S
same,Drug sensibility profile,MRSA strain 2,S
same,Drug sensibility profile,MRSA strain 3,S
same,Drug sensibility profile,MRSA strain 4,S
same,Drug sensibility profile,MRSA strain 5,S
same,Drug sensibility profile,MRSA strain 6,S
same,Drug sensibility profile,MRSA strain 7,S
same,Drug sensibility profile,MRSA strain 8,S
same,Drug sensibility profile,MRSA strain 9,S
same,Drug sensibility profile,MRSA strain 10,S
same,Drug sensibility profile,MRSA strain 12,S
same,Drug sensibility profile,MRSA strain 13,S
same,Drug sensibility profile,MRSA strain 14,S
same,Drug sensibility profile,MRSA strain 15,S
same,Drug sensibility profile,MRSA strain 16,S
same,Drug sensibility profile,MRSA strain 17,R
same,Drug sensibility profile,MRSA strain 18,S
same,Drug sensibility profile,MRSA strain 21,S
same,Drug sensibility profile,MRSA strain 23,S
same,Drug sensibility profile,MRSA strain 24,S
same,Drug sensibility profile,MRSA strain 25,S
same,Drug sensibility profile,MRSA strain 26,S
same,Drug sensibility profile,MRSA strain 27,S
same,Drug sensibility profile,MRSA strain 28,S
same,Drug sensibility profile,MRSA strain 29,S
same,Drug sensibility profile,MRSA strain 30,S
same,Drug sensibility profile,MRSA strain 31,S
same,Drug sensibility profile,MRSA strain 34,S
same,Drug sensibility profile,MRSA strain 35,S
same,Drug sensibility profile,MRSA strain 36,S
same,Drug sensibility profile,MRSA strain 40,S
same,Drug sensibility profile,MRSA strain 41,S
same,Drug sensibility profile,MRSA strain 42,S
same,Drug sensibility profile,MRSA strain 43,S
same,Drug sensibility profile,MRSA strain 44,S
same,Drug sensibility profile,MRSA strain 45,S
same,Drug sensibility profile,MRSA strain 46,S
same,Drug sensibility profile,MRSA strain 48,S
same,Drug sensibility profile,MRSA strain 49,S
same,Drug sensibility profile,MRSA strain 50,S
same,Drug sensibility profile,MRSA strain 51,S
"CNC(C)C1CCC(N)C(OC2C(N)CC(N)C(OC3OCC(C)(O)C(NC)C3O)C2O)O1 (stereo not shown) [GEN, gentamicin]",Drug sensibility profile,MRSA strain 1,S
same,Drug sensibility profile,MRSA strain 2,R
same,Drug sensibility profile,MRSA strain 3,R
same,Drug sensibility profile,MRSA strain 4,R
same,Drug sensibility profile,MRSA strain 5,R
same,Drug sensibility profile,MRSA strain 6,S
same,Drug sensibility profile,MRSA strain 7,R
same,Drug sensibility profile,MRSA strain 8,R
same,Drug sensibility profile,MRSA strain 9,R
same,Drug sensibility profile,MRSA strain 10,S
same,Drug sensibility profile,MRSA strain 12,S
same,Drug sensibility profile,MRSA strain 13,R
same,Drug sensibility profile,MRSA strain 14,R
same,Drug sensibility profile,MRSA strain 15,S
same,Drug sensibility profile,MRSA strain 16,R
same,Drug sensibility profile,MRSA strain 17,R
same,Drug sensibility profile,MRSA strain 18,R
same,Drug sensibility profile,MRSA strain 21,S
same,Drug sensibility profile,MRSA strain 23,R
same,Drug sensibility profile,MRSA strain 24,R
same,Drug sensibility profile,MRSA strain 25,R
same,Drug sensibility profile,MRSA strain 26,S S S S S S S
same,Drug sensibility profile,MRSA strain 27,R
same,Drug sensibility profile,MRSA strain 28,R
same,Drug sensibility profile,MRSA strain 29,S
same,Drug sensibility profile,MRSA strain 30,S
same,Drug sensibility profile,MRSA strain 31,R
same,Drug sensibility profile,MRSA strain 34,R
same,Drug sensibility profile,MRSA strain 35,R
same,Drug sensibility profile,MRSA strain 36,S S S S S S S
same,Drug sensibility profile,MRSA strain 40,R
same,Drug sensibility profile,MRSA strain 41,R
same,Drug sensibility profile,MRSA strain 42,R
same,Drug sensibility profile,MRSA strain 43,R
same,Drug sensibility profile,MRSA strain 44,R
same,Drug sensibility profile,MRSA strain 45,R
same,Drug sensibility profile,MRSA strain 46,S
same,Drug sensibility profile,MRSA strain 48,R
same,Drug sensibility profile,MRSA strain 49,S
same,Drug sensibility profile,MRSA strain 50,R
same,Drug sensibility profile,MRSA strain 51,R
